Laboratory results as given in patent US6436960B1, “Farnesyl transferase inhibitors having a piperidine structure and process for preparation thereof” (LG Chemical Ltd., priority 1998, dated 2002).

Assays:
Ras farnesyl transferase [1] = target: T1, Ras farnesyl transferase (Homo sapiens, UniProt P49354+P49356); assay: in vitro inhibitory activity for Ras farnesyl transferase, K-Ras substrate; format: biochemical; details: recombinant Ras farnesyl transferase, K-Ras substrate; read-out: K-Ras IC50
T1 construct: made in house
Procedure: In the present experiment, Ras farnesyl transferase produced by genetic recombination techniques according to the improved Pompliano's method (Pompliano et al., Biochemistry, 1992, 31, 3800) was used, […] Appln. No. 97-14409 was used after it has been purified according to the known method(see, Chung et al., Biochimica et Biophysica Acta, 1992, 278, 1129).
(§1) The enzyme reaction was performed in 50 μl of 50 mM Soduam HEPES buffer solution containing 25 mM of potassium chloride, 25 mM of magnesium chloride, 10 mM of DTT and 50 μM of zinc chloride. 1.5 μM of Ras substrate protein, 0.15 μM of tritium-farnesylpyrophosphate and 4.5 nM of farnesyl transferase were used.
(§2) More specifically, in the initial step, farnesyl transferase was added to the above buffer solution, reaction was maintained for 30 minutes at 37° C. and then the reaction was stopped by adding 1 ml of ethanol solution containing 1M HCl. The formed precipitates were adsorbed to GF/B filter using Hopper harvestor(Hopper #FH 225V) for filter-binding, washed with ethanol, and then radioactivity of the dried filter was measured using LKB β counter. Enzyme titer was measured in the unsaturated state of substrate where the concentrations of Ras substrate protein and farnesyl transferase have quantitative relationship. The compound according to the present invention dissolved in dimethyl sulfoxide(DMSO) was added to the reaction solution in an amount of less than 5% of the total reaction solution, and then the enzyme inhibitory activity thereof was measured. The enzyme inhibitory activity was represented by percentage of the amount of farnesyl incorporated into the Ras substrate protein in the presence of the test compound to that in the absence of the test compound. IC50 of the test compound was defined as the concentration at which 50% of the enzyme activity was inhibited.

Ras farnesyl transferase [2] = target: T1, Ras farnesyl transferase; assay: in vitro inhibitory activity for Ras farnesyl transferase, H-Ras substrate; format: biochemical; details: recombinant Ras farnesyl transferase, H-Ras substrate, tritium-farnesylpyrophosphate, 30 minutes at 37° C.; read-out: H-Ras IC50
Procedure: In the present experiment, Ras farnesyl transferase produced by genetic recombination techniques according to the improved Pompliano's method (Pompliano et al., Biochemistry, 1992, 31, 3800) was used, and Ras substrate(Ras-CVLS) protein described in Korean Patent Appln. No. 97-14409 was used after it has been purified according to the known method(see, Chung et al., Biochimica et Biophysica Acta, 1992, 278, 1129).
as §1, §2

Ras farnesyl transferase [3] = target: T2, Ras farnesyl transferase (Rattus norvegicus, UniProt Q02293+Q04631); assay: in vivo (cellular) Ras farnesyl transferase inhibitory activity, Rat2 cells expressing C-Harvey-Ras; format: cell-based; details: Rat2 cell line expressing C-Harvey-Ras; concentration inhibiting 50% of farnesyl binding of Ras protein; read-out: H-Ras CIC50
T2 construct: endogenous in cells; host or cells: Rat2 fibroblasts transformed with C-Harvey-Ras, or with H-Ras carrying the K-Ras C-terminal polybasic lysine domain
Procedure: (§3) In the present experiment, Rat2 cell line which expresses C-Harvey-Ras protein having transforming activity and Rat2 cell line(Korean patent application No. 97-14409) which is transformed with fused protein of H-Ras substituted with polybasic lysine domain at C-terminus of K-Ras were used. The experiment was performed by the modified Declue's method(Declue. J. E. et al., Cancer Research, 1991, 51, 712). Hereinafter, the experimental method will be described in more detail.
(§4) 3×10^5 cells of transformed Rat2 fibroblast cell line were sprayed on 60 mm cell cultivation dish and cultivated for 48 hours in a cell incubator at 37° C. and after 50% or more of density was reached, it was treated with the test compounds. The compound according to the present invention dissolved in dimethylsulfoxide(DMSO) was used. 1% concentration of dimethylsulfoxide was used in both control and test groups. After 4 hours from the treatment with the compound, methionine labeled with 150 μCi of radioactive isotope [^35S] per 1 ml of medium was added and after cultivating for 20 hours, the cells were washed with physiological saline water. The cells were lysed using 1 ml of cold cell lysis buffer solution(50 mM of Sodium HEPES buffer solution containing 5 mM of magnesium chloride, 1 mM of DTT, 1% NP 40, 1 mM of EDTA, 1 mM of PMSF, 2 μM of leupeptin, 2 μM of pepstatin A and 2 μM of antipain) and the supernatant wherein the cells were lysed was obtained by high-velocity centrifugation of 12,000 g×5 minutes. The amount of radioisotope in the supernatant was measured and standardized to obtain a quantitative result in immunoprecipitation reaction and then, Y13-259, a monoclonal antiboby specifically binding to Ras protein(Furth, M. E. et al., J. Virol, 1982, 43, 294) was added and reacted for 15 hours at 4° C. Protein A(combined with goat anti-murine imunoglobulin antibody)-agarose suspension was added to the solution and reacted for 1 hour at 4° C. and then, to remove the unspecific binding product, immunoprecipitates were washed with a buffer solution (50 mM Tris chloride buffer solution containing 50 mM of sodium chloride, 0.5% of sodium dioxycholate, 0.5% of NP 40 and 0.1% of SDS). The precipitates were added to a buffer solution for electrophoresis and boiled and then, electrophoresis was performed using 13.5% of SDS polyacrylamide gel. After electrophoresis, the gel was fixed and dried. Then, the gel was exposed to X-ray film, developed and printed. From the result of the experiment, intensities of band of protein combined with or without farnesyl of Ras protein were measured, and the concentration of the test compound inhibiting 50% of farnesyl binding was defined as CIC50, an in vivo Ras farnesyl transferase inhibitory activity.

Ras farnesyl transferase [4] = target: T2, Ras farnesyl transferase; assay: in vivo (cellular) Ras farnesyl transferase inhibitory activity, Rat2 cells transformed with H-Ras fused with polybasic lysine domain of K-Ras; format: cell-based; details: Rat2 cell line transformed with H-Ras substituted with polybasic lysine domain at C-terminus of K-Ras; concentration inhibiting 50% of farnesyl binding; read-out: K-Ras CIC50
Procedure: as §3, §4

| IC50 (Ras farnesyl transferase [1]) [nM] | IC50 (Ras farnesyl transferase [2]) [nM] | IC50 (Ras farnesyl transferase [3]) [nM] | IC50 (Ras farnesyl transferase [4]) [nM] | Compound |
| --- | --- | --- | --- | --- |
| 8 | 12 | 10 to 100 | 1000 to 10000 | COCCN(C)C(=O)c1cn(Cc2cncn2CC2CCN(C(=O)/C=C/c3ccccc3)CC2)cc1-c1cccc2ccccc12 [Compound 28] |
| 50 | 10 to 100 | 10 to 100 | 1000 to 10000 | COCCN(C)C(=O)c1cn(Cc2cncn2CC2CCN(C(=O)OC/C=C(\C)CCC=C(C)C)CC2)cc1-c1cccc2ccccc12 [Compound 21] |
| 6 | 1.2 | 25 | 10000 to 50000 | CC(=O)N1CCC(Cn2cncc2Cn2cc(C(=O)N3CCN(C)CC3)c(-c3cccc4ccccc34)c2)CC1 [Compound 42, 1-[1-(1-Acetylpiperidin-4-yl)methyl-1H-imidazol-5-yl]methyl-3-(4-methylpiperazin-1-yl)carbonyl-4-(naphthalen-1-yl)-1H-pyrrole] |
| 1500 | 300 | 1000 | 30000 to 100000 | CN(C)CCN(C)C(=O)c1cn(Cc2cncn2CC2CCN(C(=O)OCc3ccccc3)CC2)cc1-c1cccc2ccccc12 [Compound 39, 1-[1-(-Benzyloxycarbonylpiperidin-4-yl)methyl-1H-imidazol-5-yl]methyl-3-{N-[2-(N,N-dimethylamino)ethyl]-N-methyl}carbamoyl-4-(naphthalen-1-yl)-1H-pyrrole] |

The next lines start with the compound.

| Compound | IC50 (Ras farnesyl transferase [1]) [nM] | IC50 (Ras farnesyl transferase [2]) [nM] | IC50 (Ras farnesyl transferase [3]) [nM] | IC50 (Ras farnesyl transferase [4]) [nM] |
| --- | --- | --- | --- | --- |
| COCCN(C)C(=O)c1cn(Cc2cncn2CC2CCN(C(=O)OCc3cccc4ccccc34)CC2)cc1-c1cccc2ccccc12 [Compound 19, 3-[N-(2-Methoxyethyl)-N-methyl]carbamoyl-4-(naphthalen-1-yl)-1-{1-[1-(1-naphthalen-1-ylmethyloxycarbonyl)piperidin-4-ylmethyl]-1H-imidazol-5-ylmethyl}-1H-pyrrole] | 20 | 7 | 10 | 1000 to 10000 |
| CC(=O)N1CCC(Cn2cncc2Cn2cc(C(=O)N3CCOCC3)c(-c3cccc4ccccc34)c2)CC1 [Compound 3, 1-[1-(1-Acetylpiperidin-4-ylmethyl)-1H-imidazol-5-ylmethyl]-3-(morpholinyl)carbonyl-4-(naphthalen-1-yl)-1H-pyrrole] | 16 | 1 | 10 to 100 | 10000 to 50000 |
| CS(=O)(=O)N1CCC(Cn2cncc2Cn2cc(C(=O)N3CCOCC3)c(-c3cccc4ccccc34)c2)CC1 [Compound 4, 1-[1-(1-Methylsulfonyl-piperidin-4-ylmethyl)-1H-imidazol-5-ylmethyl]-3-(morpholin-4-yl)carbonyl-4-(naphthalen-1-yl)-1H-pyrrole] | 26 | 3.6 | 10 to 100 | 10000 to 50000 |
| COCCN(C)C(=O)c1cn(Cc2cncn2CC2CCN(C(=O)NCc3ccccc3)CC2)cc1-c1cccc2ccccc12 [Compound 9, 1-{1-[1-(N-Benzylcarbamoyl)-piperidin-4-ylmethyl]-1H-imidazol-5-ylmethyl}-3-[N-(2-methoxyethyl)-N-methyl]carbamoyl(naphthalen-1-yl)-1H-pyrrole] | 10 to 1000 | 1 to 10 | 10 to 100 | 1000 to 50000 |
